{"source": "patent US6355799B1", "about": "“Substituted benzene compounds, process for their preparation, and herbicidal and defoliant compositions containing them” (ISK Americas Incorporated, priority 1997, dated 2002)", "assay_type_in_all_cases": "in vivo", "key": {"[1]": {"system": "redroot pigweed (Amaranthus retroflexus, AMARE)", "assay": "Post-emerge test, greenhouse herbicide activity screening", "details": "phytotoxicity rating 0-100 (0 no damage, 100 complete death), 14 days after application", "summary_of_the_method": "(§1)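 Compounds in acetone were track-sprayed at 15–1000 g ai/ha: pre-emergence onto soil sown the previous day, then top-watered to incorporate and later bottom-watered; post-emergence onto 2–3 leaf plants with 0.25% v/v surfactant, bottom-watered only. Ratings on a 0–100 phytotoxicity scale were taken at day 14.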"}, "[2]": {"system": "green foxtail (Setaria viridis, SETVI)", "assay": "Post-emerge test, greenhouse herbicide activity screening", "details": "phytotoxicity rating 0-100 (0 no damage, 100 complete death), 14 days after application", "summary_of_the_method": "as §1"}, "[3]": {"system": "large crabgrass (Digitaria sanguinalis, DIGSA)", "assay": "Post-emerge test, greenhouse herbicide activity screening", "details": "phytotoxicity rating 0-100 (0 no damage, 100 complete death), 14 days after application", "summary_of_the_method": "as §1"}, "[4]": {"system": "barnyardgrass (Echinochloa crus-galli, ECHCG)", "assay": "Post-emerge test, greenhouse herbicide activity screening", "details": "phytotoxicity rating 0-100 (0 no damage, 100 complete death), 14 days after application", "summary_of_the_method": "as §1"}, "[5]": {"system": "common ragweed (Ambrosia artemisizfolia L., AMBEL)", "assay": "Post-emerge test, greenhouse herbicide activity screening", "details": "phytotoxicity rating 0-100 (0 no damage, 100 complete death), 14 days after application", "summary_of_the_method": "as §1"}, "[6]": {"system": "ivyleaf morningglory (Ipomoea hederacea, IPOHE)", "assay": "Post-emerge test, greenhouse herbicide activity screening", "details": "phytotoxicity rating 0-100 (0 no damage, 100 complete death), 14 days after application", "summary_of_the_method": "as §1"}, "[7]": {"system": "sicklepod (Cassia obtusifolia, CASOB)", "assay": "Post-emerge test, greenhouse herbicide activity screening", "details": "phytotoxicity rating 0-100 (0 no damage, 100 complete death), 14 days after application", "summary_of_the_method": "as §1"}, "[8]": {"system": "velvetleaf (Abutilon theophrasti, ABUTH)", "assay": "Post-emerge test, greenhouse herbicide activity screening", "details": "phytotoxicity rating 0-100 (0 no damage, 100 complete death), 14 days after application", "summary_of_the_method": "as §1"}, "[9]": {"system": "lambsquarters (Chenopodium album, CHEAL)", "assay": "Post-emerge test, greenhouse herbicide activity screening", "details": "phytotoxicity rating 0-100 (0 no damage, 100 complete death), 14 days after application", "summary_of_the_method": "as §1"}, "[10]": {"system": "johnsongrass (Sorghum halepense, SORHA)", "assay": "Post-emerge test, greenhouse herbicide activity screening", "details": "phytotoxicity rating 0-100 (0 no damage, 100 complete death), 14 days after application", "summary_of_the_method": "as §1"}, "[11]": {"system": "green foxtail (Setaria viridis, SETVI)", "assay": "Pre-emerge test, greenhouse herbicide activity screening", "details": "pre-emerge, rated 14 days after application, 0 = no damage, 100 = complete death", "summary_of_the_method": "(§2)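 Plants grown in 10 cm pots of sandy loam mix received acetone-dissolved compounds through a moving flat-fan nozzle. Doses ranged from 15 to 1000 g ai/ha. Pre-emerge pots were seeded one day earlier, post-emerge pots 8–21 days earlier. Fourteen days on, each pot was graded 0–100 for damage.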"}, "[12]": {"system": "large crabgrass (Digitaria sanguinalis, DIGSA)", "assay": "Pre-emerge test, greenhouse herbicide activity screening", "details": "pre-emerge, rated 14 days after application, 0 = no damage, 100 = complete death", "summary_of_the_method": "as §2"}, "[13]": {"system": "barnyardgrass (Echinochloa crus-galli, ECHCG)", "assay": "Pre-emerge test, greenhouse herbicide activity screening", "details": "pre-emerge, rated 14 days after application, 0 = no damage, 100 = complete death", "summary_of_the_method": "as §2"}, "[14]": {"system": "ivyleaf morningglory (Ipomoea hederacea, IPOHE)", "assay": "Pre-emerge test, greenhouse herbicide activity screening", "details": "pre-emerge, rated 14 days after application, 0 = no damage, 100 = complete death", "summary_of_the_method": "as §2"}, "[15]": {"system": "sicklepod (Cassia obtusifolia, CASOB)", "assay": "Pre-emerge test, greenhouse herbicide activity screening", "details": "pre-emerge, rated 14 days after application, 0 = no damage, 100 = complete death", "summary_of_the_method": "as §2"}, "[16]": {"system": "velvetleaf (Abutilon theophrasti, ABUTH)", "assay": "Pre-emerge test, greenhouse herbicide activity screening", "details": "pre-emerge, rated 14 days after application, 0 = no damage, 100 = complete death", "summary_of_the_method": "as §2"}, "[17]": {"system": "lambsquarters (Chenopodium album, CHEAL)", "assay": "Pre-emerge test, greenhouse herbicide activity screening", "details": "pre-emerge, rated 14 days after application, 0 = no damage, 100 = complete death", "summary_of_the_method": "as §2"}, "[18]": {"system": "johnsongrass (Sorghum halepense, SORHA)", "assay": "Pre-emerge test, greenhouse herbicide activity screening", "details": "pre-emerge, rated 14 days after application, 0 = no damage, 100 = complete death", "summary_of_the_method": "as §2"}, "[19]": {"system": "upland rice (Oryza sp., var. Tebonnet, RICE)", "assay": "Post-emerge test, crop safety", "details": "phytotoxicity rating 0-100 (0 no damage, 100 complete death), 14 days after application", "summary_of_the_method": "(§3)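 Each test used a mechanized track sprayer delivering 187 l/ha of acetone solution at 15–1000 g ai/ha. Post-emerge foliage at 2–3 leaves was treated with added 0.25% v/v non-ionic surfactant and bottom-watered only. Injury was assessed on day 14, where 100 means total kill.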"}, "[20]": {"system": "field corn (Zea mays L., var. Dekalb 535, CORN)", "assay": "Post-emerge test, crop safety", "details": "phytotoxicity rating 0-100 (0 no damage, 100 complete death), 14 days after application", "summary_of_the_method": "as §3"}, "[21]": {"system": "upland rice (Oryza sp., var. Tebonnet, RICE)", "assay": "Pre-emerge test, crop safety", "details": "pre-emerge, rated 14 days after application, 0 = no damage, 100 = complete death", "summary_of_the_method": "(§4)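 Fourteen days after spraying, crop and weed injury was graded visually from 0, no effect, to 100, every plant dead. Test substances were dissolved in acetone and applied at 15–1000 g ai/ha with a flat-fan nozzle. Application was either pre-emergence, one day after sowing, or post-emergence at the 2–3 leaf stage.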"}, "[22]": {"system": "field corn (Zea mays L., var. Dekalb 535, CORN)", "assay": "Pre-emerge test, crop safety", "details": "pre-emerge, rated 14 days after application, 0 = no damage, 100 = complete death", "summary_of_the_method": "as §4"}, "[23]": {"system": "redroot pigweed (Amaranthus retroflexus, AMARE)", "assay": "Pre-emerge test, greenhouse herbicide activity screening", "details": "pre-emerge, rated 14 days after application, 0 = no damage, 100 = complete death", "summary_of_the_method": "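Compounds in acetone were track-sprayed at 15-1000 g ai/ha (187 l/ha) on sandy loam pots: pre-emerge one day after seeding, post-emerge at 2-3 leaf stage with 0.25% v/v non-ionic surfactant. Phytotoxicity was rated 14 days later on a 0 (no damage) to 100 (complete death) scale.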"}}, "data": [{"smiles": "CC(C)Oc1c(Cl)cc(F)c(-n2c(=O)cc(C(F)(F)F)n(C)c2=O)c1N", "note": "[Compound 1-63]", "values": [{"measurement": "Post-emerge Herbicidal Activity AMARE", "setting": "[1]; 63 g ai/ha", "result": 10}, {"measurement": "Post-emerge Herbicidal Activity AMARE", "setting": "[1]; 250 g ai/ha", "result": 10}, {"measurement": "Post-emerge Herbicidal Activity SETVI", "setting": "[2]; 63 g ai/ha", "result": 0}, {"measurement": "Post-emerge Herbicidal Activity SETVI", "setting": "[2]; 250 g ai/ha", "result": 20}, {"measurement": "Post-emerge Herbicidal Activity DIGSA", "setting": "[3]; 63 g ai/ha", "result": 0}, {"measurement": "Post-emerge Herbicidal Activity DIGSA", "setting": "[3]; 250 g ai/ha", "result": 0}, {"measurement": "Post-emerge Herbicidal Activity ECHCG", "setting": "[4]; 63 g ai/ha", "result": 0}, {"measurement": "Post-emerge Herbicidal Activity ECHCG", "setting": "[4]; 250 g ai/ha", "result": 30}, {"measurement": "Post-emerge Herbicidal Activity AMBEL", "setting": "[5]; 63 g ai/ha", "result": 0}, {"measurement": "Post-emerge Herbicidal Activity AMBEL", "setting": "[5]; 250 g ai/ha", "result": 50}, {"measurement": "Post-emerge Herbicidal Activity IPOHE", "setting": "[6]; 63 g ai/ha", "result": 95}, {"measurement": "Post-emerge Herbicidal Activity IPOHE", "setting": "[6]; 250 g ai/ha", "result": 90}, {"measurement": "Post-emerge Herbicidal Activity CASOB", "setting": "[7]; 63 g ai/ha", "result": 0}, {"measurement": "Post-emerge Herbicidal Activity CASOB", "setting": "[7]; 250 g ai/ha", "result": 0}, {"measurement": "Post-emerge Herbicidal Activity ABUTH", "setting": "[8]; 63 g ai/ha", "result": 70}, {"measurement": "Post-emerge Herbicidal Activity ABUTH", "setting": "[8]; 250 g ai/ha", "result": 100}, {"measurement": "Post-emerge Herbicidal Activity CHEAL", "setting": "[9]; 63 g ai/ha", "result": 20}, {"measurement": "Post-emerge Herbicidal Activity CHEAL", "setting": "[9]; 250 g ai/ha", "result": 50}, {"measurement": "Post-emerge Herbicidal Activity SORHA", "setting": "[10]; 63 g ai/ha", "result": 0}, {"measurement": "Post-emerge Herbicidal Activity SORHA", "setting": "[10]; 250 g ai/ha", "result": 0}, {"measurement": "Pre-emerge Herbicidal Activity SETVI (phytotoxicity rating, scale 0-100)", "setting": "[11]; 63 g ai/ha", "result": 95}, {"measurement": "Pre-emerge Herbicidal Activity SETVI (phytotoxicity rating, scale 0-100)", "setting": "[11]; 250 g ai/ha", "result": 100}, {"measurement": "Pre-emerge Herbicidal Activity DIGSA (phytotoxicity rating, scale 0-100)", "setting": "[12]; 63 g ai/ha", "result": 80}, {"measurement": "Pre-emerge Herbicidal Activity DIGSA (phytotoxicity rating, scale 0-100)", "setting": "[12]; 250 g ai/ha", "result": 100}, {"measurement": "Pre-emerge Herbicidal Activity ECHCG (phytotoxicity rating, scale 0-100)", "setting": "[13]; 63 g ai/ha", "result": 40}, {"measurement": "Pre-emerge Herbicidal Activity ECHCG (phytotoxicity rating, scale 0-100)", "setting": "[13]; 250 g ai/ha", "result": 100}, {"measurement": "Pre-emerge Herbicidal Activity IPOHE (phytotoxicity rating, scale 0-100)", "setting": "[14]; 63 g ai/ha", "result": 20}, {"measurement": "Pre-emerge Herbicidal Activity IPOHE (phytotoxicity rating, scale 0-100)", "setting": "[14]; 250 g ai/ha", "result": 95}, {"measurement": "Pre-emerge Herbicidal Activity CASOB (phytotoxicity rating, scale 0-100)", "setting": "[15]; 63 g ai/ha", "result": 20}, {"measurement": "Pre-emerge Herbicidal Activity CASOB (phytotoxicity rating, scale 0-100)", "setting": "[15]; 250 g ai/ha", "result": 90}, {"measurement": "Pre-emerge Herbicidal Activity ABUTH (phytotoxicity rating, scale 0-100)", "setting": "[16]; 63 g ai/ha", "result": 100}, {"measurement": "Pre-emerge Herbicidal Activity ABUTH (phytotoxicity rating, scale 0-100)", "setting": "[16]; 250 g ai/ha", "result": 100}, {"measurement": "Pre-emerge Herbicidal Activity CHEAL (phytotoxicity rating, scale 0-100)", "setting": "[17]; 63 g ai/ha", "result": 100}, {"measurement": "Pre-emerge Herbicidal Activity CHEAL (phytotoxicity rating, scale 0-100)", "setting": "[17]; 250 g ai/ha", "result": 100}, {"measurement": "Pre-emerge Herbicidal Activity SORHA (phytotoxicity rating, scale 0-100)", "setting": "[18]; 63 g ai/ha", "result": 50}, {"measurement": "Pre-emerge Herbicidal Activity SORHA (phytotoxicity rating, scale 0-100)", "setting": "[18]; 250 g ai/ha", "result": 99}, {"measurement": "Post-emerge Herbicidal Activity RICE (crop damage)", "setting": "[19]; 63 g ai/ha", "result": 10}, {"measurement": "Post-emerge Herbicidal Activity RICE (crop damage)", "setting": "[19]; 250 g ai/ha", "result": 40}, {"measurement": "Post-emerge Herbicidal Activity CORN (crop damage)", "setting": "[20]; 63 g ai/ha", "result": 0}, {"measurement": "Post-emerge Herbicidal Activity CORN (crop damage)", "setting": "[20]; 250 g ai/ha", "result": 0}, {"measurement": "Pre-emerge crop damage RICE (phytotoxicity rating, scale 0-100)", "setting": "[21]; 63 g ai/ha", "result": 80}, {"measurement": "Pre-emerge crop damage RICE (phytotoxicity rating, scale 0-100)", "setting": "[21]; 250 g ai/ha", "result": 95}, {"measurement": "Pre-emerge crop damage CORN (phytotoxicity rating, scale 0-100)", "setting": "[22]; 63 g ai/ha", "result": 10}, {"measurement": "Pre-emerge crop damage CORN (phytotoxicity rating, scale 0-100)", "setting": "[22]; 250 g ai/ha", "result": 90}, {"measurement": "Pre-emerge Herbicidal Activity AMARE (phytotoxicity rating, scale 0-100)", "setting": "[23]; 63 g ai/ha", "result": 100}, {"measurement": "Pre-emerge Herbicidal Activity AMARE (phytotoxicity rating, scale 0-100)", "setting": "[23]; 250 g ai/ha", "result": 100}]}]}
